Data from a melting point compilation (Tetko et al.; mined from patent text by program, amines drawn as free bases though some values may be those of a salt).

Structure (SMILES)	melting point [°C]
O=C(O)c1ccc(NCC=Cc2ccccc2)cn1	178 to 183
O=C(O)CCCc1cc2nc(Cl)ccc2n1S(=O)(=O)c1ccc(F)cc1	180
CCCCCCCCCCCCC1=C(OC(=O)OC)C(=O)c2ccccc2C1=O	70 to 72
O=[N+]([O-])c1ccccc1OC[C@@H](O)CNCCc1ccc(Cl)c(Cl)c1	73 to 74
COCCc1nc2c(N)nc3ccccc3c2n1CCOCCN(C(N)=O)c1ccccc1	171 to 174
COCCOc1c(F)c(Oc2ccc(S(C)(=O)=O)nc2)cc2cc(C3=NCC(CC(N)=O)S3)[nH]c12 (configuration not stated)	143 to 144
CCOC(=O)OC1=C(c2c(C)cc(C)cc2C)C(=O)N(O)C12CCN(OC)CC2	154 to 155
CCCC1=C(C#N)C(c2ccccc2Cl)c2c(n[nH]c2-c2ccccc2)N1 (configuration not stated)	262
CC(=O)C(C(=O)NS(=O)(=O)c1ccc(C)cc1)C(=O)c1ccccc1 (configuration not stated)	114 to 116
COc1ccc(S(=O)(=O)C2(C(=O)O)CCN(C(C)(C)C)CC2)cc1	204
Cc1cc(-c2nc3cc(F)cc(N4CCCC4)c3c(=O)[nH]2)cc(C)c1OCCN1CCCC1	207
COc1c2c(cc3ccc(=O)oc13)CC(O)O2 (configuration not stated)	135 to 137
Cc1ccc(Cn2nnc(C(N)=O)c2N)cc1C(Cl)=C(Cl)Cl	196 to 197
Cc1noc(C(=O)NC(C)(C)C)c1C(N)=O	155 to 158
CC(=O)NCC1CC1c1c(Cl)ccc2nn(C)cc12 (configuration not stated)	149 to 150
COc1ccc2c(c1)c1c3c(c(-c4ccccc4Cl)cc1n2CCC(=O)O)C(=O)NC3=O	277
CC(=O)OCc1cccc(-c2ccco2)c1C	48.5 to 50
CCCn1c(=O)c2[nH]c(-c3ccc(C(=O)N(CC)CC)o3)nc2n(CCC)c1=O	247 to 250
Cc1c(C(=O)Nc2ccc(-c3ccc(S(=O)(=O)NC(C(=O)O)C(C)C)cc3)cc2)oc2ccccc12 (configuration not stated)	264 to 266
CCNC(=O)c1c(Cl)cccc1[Si](C)(C)CBr	98 to 99
CC(C)c1nc(-c2ccccc2)nc(-c2ccc(F)cc2)c1C=C(Br)Br	95 to 98
O=C(O)C(Oc1ccccc1)c1ccc(Oc2ccc(Cl)cc2)cc1 (configuration not stated)	114 to 116
CN(CCCC(C(N)=O)(c1ccccc1)c1ccccc1)CCc1ccccn1	134 to 136
NP(N)(=O)NC(=O)c1ccc(F)cc1	255 to 257
O=C(O)CCC(=O)c1ccc(Oc2ccc(NC(=O)c3ccc(Cl)c(Cl)c3)cc2F)cc1	205 to 208
N#Cc1cc(Br)c(I)c(Br)c1	170 to 175

Structure (SMILES)	melting point [°C]
Cc1cc(F)c(N)cc1N	112
Nc1nc2ccccc2c2c1ncn2CCCCNC(=O)COc1ccc(C(=O)c2ccccc2)cc1	73 to 98
COC(=O)c1cccc(-c2nnc(-c3ccc(N4CCOCC4)cc3)o2)c1	150 to 151
FC(F)(F)c1cccc(-c2ccnc(Nc3ccc4c(c3)OCCO4)c2)c1	139 to 140
CC(=O)NCc1ccc(CCl)cc1	116 to 118
Cc1cc(OC(F)F)nc(NC(=O)NS(=O)(=O)c2ccccn2)n1	150 to 151
CCOc1ccc(C(=O)c2ccc(OC)c(Cl)c2Cl)c(F)c1	94 to 96
Cc1ccc2cc(NC(=O)c3cccc(OCc4ccc(N)nc4)c3)ccc2n1	189 to 192
O=C(NC(=O)c1ccccc1F)Nc1ccc(F)c(C(F)(F)F)c1Cl	173
CCc1cc(OC)cc(C(=O)O)c1C(=O)OC	116 to 118
OC(Cn1cncn1)(Cn1ncnc1C=Cc1ccc(Cl)cc1)c1ccc(Cl)cc1Cl (configuration not stated)	193 to 196
CC(C)C[C@H](NC(=O)c1ccc(Cl)cc1)C(=O)N[C@@H](C(C)C)[C@@H](O)c1c(-c2ccccc2)c1=O	116 to 120
CNc1nc(-c2cc(C)c(O)c(C)c2)cc2ccc(CN3CCN(C)CC3)cc12	264 to 266
CCOC(=O)Cc1c(C)n(Cc2ccccc2)c2ccc(-c3ccccc3)cc12	116 to 119
O=C1CCC(c2ccccc2)=NN1c1cc(-c2ccnc(Nc3cccc(Cl)c3)n2)ccn1	144 to 146
CCc1cccc(CCC(O)c2ccccc2)c1NC(=O)CC1c2ccccc2Oc2ccccc21 (configuration not stated)	192 to 193
Cc1nn(-c2cccnc2)cc1[N+](=O)[O-]	122 to 124
CC(C)NS(=O)(=O)c1ccc(N2CCC(=O)CC2)cc1	103 to 105
CN1CCC(c2c[nH]c3ccc(NC(=O)C4CCCC4)nc23)CC1	119 to 121
COC1(C)C(=O)C(c2ccccc2)=C1c1ccc(S(C)(=O)=O)cc1 (configuration not stated)	145
O=C(N=c1sc2cc(OC(F)(F)F)ccc2n1CCO)C(F)(F)F	144
COc1ccc2c(Cc3c(Cl)cncc3Cl)nnc(-n3ccnc3)c2c1	> 250
CC(=O)COC(=O)C=CC(=O)OCC(C)=O	121 to 123
CC1(C)CC(=O)C(F)C(C)(C)C1 (configuration not stated)	27 to 31
CC(C)(C)OC(=O)N1C[C@H](C#N)C[C@H]1C(=O)OCc1ccccc1	97 to 99
O=C(O)c1ccsc1C(F)F	127 to 128

Structure (SMILES)	melting point [°C]
CCc1c(OC)nc2nc(C(N)=S)cn2c1C	248 to 259
CC(=O)Nc1ccc(-c2cc(-c3c(-c4ccccn4)nc4ccccn34)ccn2)cc1	133
COc1cc([N+](=O)[O-])c(F)cc1Cl	69 to 70
COc1cc(CN2CCN(C(=O)c3ccc4c(c3)C(=O)c3ccccc3C4=O)CC2)cc(OC)c1OC	158 to 160
CCOC(=O)N1CCN(C2=C(O)C(=O)c3ccccc3C2=O)CC1	115 to 118
CCOc1ccc2c(c1)CCc1c(cccc1C(=O)O)S2	165 to 167
CCc1n[nH]c(CC)c1Oc1cccc(C#N)c1	81 to 84
CC(C)N(C[C@H](O)COc1ccc(OCc2ccccc2)cc1)S(C)(=O)=O	96 to 97
Cc1nc2cnc3ccccc3c2n1Cc1ccc(Cl)cc1	183 to 185
Cn1cc(-c2cc(-c3ccc4[nH]ncc4c3)ccn2)n(-c2ccc(C(C)(C)C#N)cc2)c1=O	165
COc1ccc2c(c1OC)C(=Cc1ccccc1)c1ccccc1-2	210
CC(Oc1cc(Oc2ccc(C(F)(F)F)cc2Cl)ccc1[N+](=O)[O-])C(=O)NCc1ccco1 (configuration not stated)	128 to 130
C[C@@H](O)CNC(=O)N1CC(c2ccc(F)cc2)C1	104 to 105
O=C1c2ccccc2C(O)N1CCCCCCl (configuration not stated)	77 to 79
CC(C)(C)c1cc(CO)nn1-c1ccc(S(C)(=O)=O)cc1	143 to 146
CCCCCCCCCCCCC(=O)CC	84 to 86
COc1c(F)c(F)c(C(=O)c2c(F)c(F)c(F)c(F)c2F)c(OC)c1F	49 to 50
CCCCCCCCCCCc1cc2ccc(C(=O)OCC)cc2[nH]1	84 to 86
CS(=O)(=O)Nc1ccc([N+](=O)[O-])cc1Br	148 to 151
CCOC(=O)c1cn(-c2nnc(C)s2)c2nc(N3CC[C@H](N)C3)c(F)cc2c1=O	265 to 268
CC1(C)OC(=C(C#N)C#N)C(C#N)=C1C=Cc1cc2c3c(c1)CCCN3CCC2	243
C[C@@H](n1ncn(-c2ccc(-n3cncn3)cc2)c1=O)[C@](O)(Cn1cncn1)c1ccc(F)cc1F	182 to 184
CCCOC(=O)n1cc2c(n1)NC(CCC)=C(C(=O)OCC)C2c1ccccc1Cl (configuration not stated)	59
Nc1c(-c2cc(Cl)ccc2O)c2c(C(F)(F)F)c(Cl)ccc2[nH]c1=O	139 to 140
N#Cc1ccc2c(c1)Sc1ccccc1CC2	145 to 147
CC(=O)c1ccc(OCCOc2ccc3ccccc3c2)c(Cl)c1	164 to 166

Structure (SMILES)	melting point [°C]
COc1ccc(Nc2ccc(C)cc2)cc1	81 to 82
CC(C)(C)C(=O)C(Oc1ccccc1)C(=O)Nc1ccc(Cl)cc1Cl (configuration not stated)	112 to 114
CC(CC(C(O)CC(C)(C)O)N(C)C)C1CCC2C(O)CCCC12C (configuration not stated)	169 to 170
C#CCN(C(=O)C(Cl)Cl)C(C)C	58 to 59
COC(=O)c1cc(Cl)cc(C(F)(F)F)n1	62 to 63
COC(C)C(=O)Nc1c(C(=O)c2ccccc2)[nH]c2cc(Cl)ccc12 (configuration not stated)	169 to 171
Cc1cc(F)ccc1Nc1nc(N(C)c2ccccc2)c2cc(OCCCN(C)C)ccc2n1	103 to 104
NS(=O)(=O)c1cc2c(cc1Cl)C(=O)N(CCc1ccccn1)C2=O	240 to 241
Cc1nnc(Cl)c(-c2c(F)cccc2Cl)c1-c1ccc(Cl)nc1	166 to 167
CS(=O)(=O)Nc1ccc(CCc2n[nH]c3c2c(=O)n(-c2ccccc2)c2ncccc32)cc1	284 to 285
CC(=O)NCc1cc([N+](=O)[O-])ccc1N	208 to 210
CC(C)OC1=NC(=O)N(C(C)C)S(=O)(=O)N1	164 to 167
COCC#Cc1cc(C(=O)OC)c(N)cc1C(F)(F)F	107 to 111
NS(=O)(=O)c1ccc(-c2[nH]c3ccc(Br)cc3c2-c2ccccc2)cc1	310 to 312
COc1cc(Nc2c(-c3ccc(S(C)(=O)=O)cc3)cnn(CC(F)(F)F)c2=O)cc(C(F)(F)F)c1	206 to 208
CC(=O)NC[C@H]1CN(c2ccc(C(=O)c3cnc4c(OCc5ccccc5)cccn34)cc2)C(=O)O1	193 to 195
O=C(O)C(Cc1ccsc1)N1C(=O)c2ccccc2C1=O (configuration not stated)	162 to 165
Cc1cncc2cc(S(N)(=O)=O)oc12	180 to 182
CCN1C(=O)CN=C(c2ccccc2F)c2cc(C(C)=NO)ccc21	236 to 238
C=Cc1ccc(-c2cc(NC(=O)C3Cc4ccccc4C3)n[nH]2)cc1	193 to 195
Cc1cnnc2c1C(=O)CC(c1cc(Cl)ccc1F)C2 (configuration not stated)	124 to 125
Cn1ccc2cc(-c3ccc(S(=O)(=O)n4ccc(/C=C/C(=O)NO)c4)cc3)ccc21	177 to 179
O=C(O)COc1cc(O)c2c(c1)NC1(CCCCC1)CC2=O	177 to 178
Clc1[nH]ncc1-c1csc(Nc2ccccn2)n1	299 to 304
